Source: patent publication US6838450B2, “Drug complex” (Daiichi Pharmaceutical Co., LTD, priority 1996, dated 2005)
Where a name gives a salt, the structure may show the parent alone. Peptide text beside a SMILES is read from it.

Key:
[1] = test system: mouse fibrosarcoma Meth A cells; test: Antitumor activity, Meth A tumor-bearing mice, injection every 4 days 4 times; details: for antitumor activity (in words): compared to the drug compound, per se; for Inhibition rate (%): tail vein every 4 days from day 7, tumor weight day 21
Procedure: Meth A tumor-bearing mice were prepared (7 mice per group) by subcutaneously transplanting 1×10^6 mouse fibrosarcoma Meth A cells into the right inguinal regions of BALB/c male mice (7-week old). On day 7, the drug complex of Example 9 dissolved in distilled water for injection was injected in the tail vein of the Meth A tumor-bearing mice every 4 days 4 times. On day 21 after the transplantation, tumor masses were excised and weighed to calculate the inhibition rate of tumor growth according to the following equation: inhibition rate of tumor growth (%)=[1−(average tumor weight of the group administered with the test sample/average tumor weight of control group)]×100.

[2] = test system: mouse fibrosarcoma Meth A cells; test: Antitumor activity, Meth A tumor-bearing mice, single administration; type: in vivo; details: for Inhibition rate (%): Table 3; for antitumor activity (in words) / effective dose-range: single administration, compared to the drug compound, per se
Procedure: Meth A tumor-bearing mice (6 mice per group) were prepared according to a similar manner to that of Example 11 and the antitumor activity was compared to that obtained by single administration of the drug complexes of Examples 8 and 9 once on day 7. As a result, the degree of the antitumor activity was as follows: (Polysaccharide derivative)-Gly-Gly-Phe-Gly-NH—A′>(Polysaccharide derivative)-Gly-Gly-Gly-Phe-NH—A′>the drug compound, per se.
Meth A tumor-bearing mice (6 mice per group) were prepared according to a similar manner to that of Example 11, and the antitumor activity of the drug complex of Example 41 was examined in the cases of single administration in a similar manner to that of Example 12, and its antitumor activity was compared to that of the drug compound, per se. […]

[3] = test system: mouse fibrosarcoma Meth A cells; test: as above; type: in vivo
Human lung cancer QG-90 = test: Antitumor activity, human lung cancer QG-90-bearing nude mice; type: in vivo, mouse; details: for Inhibition rate (%) / Numbers of died mice/mice used: single intravenous administration on day 16, nude mice
Procedure: (§1) SC-6 tumor-bearing nude mice (5 mice per group) were prepared by subcutaneously transplanting a piece of SC-6 human gastric tumor block into the right inguinal regions of nude mice (BALB/c-nu/nu, male).
Human lung cancer QG-90-bearing nude mice (5 mice per group) were prepared according to a similar manner to that of Example 57.

SC-6 human gastric tumor = test: Antitumor activity, SC-6 tumor-bearing nude mice; type: in vivo, mouse; details: for Inhibition rate (%) / Numbers of died mice/mice used: single intravenous administration on day 27, nude mice
Procedure: as §1

[4] = Pharmacokinetics in Meth A tumor-bearing mice; type: in vivo, mouse; details: single administration, 10 mg/kg calculated as the drug compound; FIG. 24
[5] = 5 mg/kg calculated based on the drug compound, single administration on day 7
[6] = Example 60, 20 mg/kg calculated based on the drug compound, single administration, 20 mg/kg
[7] = Example 60, 40 mg/kg calculated based on the drug compound, single administration
[8] = Example 60, 80 mg/kg calculated based on the drug compound, single administration
[9] = Example 60, 100 mg/kg calculated based on the drug compound, single administration
[10] = 1.75 mg/kg calculated based on the drug compound
[11] = 7 mg/kg calculated based on the drug compound
[12] = single intravenous administration, compared to the drug compound, per se
[13] = 2 mg/kg calculated based on the drug compound
[14] = 8 mg/kg calculated based on the drug compound

CC[C@@]1(O)C(=O)OCc2c1cc1n(c2=O)Cc2c-1nc1cc(F)c(C)c3c1c2[C@@H](NC(=O)CNC(=O)[C@H](Cc1ccccc1)NC(=O)CNC(=O)CN)CC3 [3′-N-(Gly-Gly-Phe-Gly)-NH—A (A—NH2=DX-8951) trifluoroacetic acid salt] (HELM PEPTIDE1{G.G.F.G.[CC[C@@]1(O)C(=O)OCc2c1cc1n(c2=O)Cc2c-1nc1cc(F)c(C)c3c1c2[C@@H](N[*:1])CC3]}$$$$V2.0)
antitumor activity (in words) ([1]; every 4 days 4 times): not effective

CC[C@@]1(O)C(=O)OCc2c1cc1n(c2=O)Cc2c-1nc1cc(F)c(C)c3c1c2[C@@H](N)CC3 [DX-8951, (1S,9S)-1-amino-9-ethyl-5-fluoro-2,3-dihydro-9-hydroxy-4-methyl-1H,12H-benzo[de]pyrano[3′,4′:6,7]indolizino[1,2-b]quinoline-10,13(9H,15H)-dione, reference compound]
Inhibition rate (%) ([2]; 20 mg/kg single administration on day 7, drug compound = DX-8951): 59% | Inhibition rate (%) ([2]; 60 mg/kg single administration on day 7, drug compound = DX-8951): 77%

carboxymethyldextran polyalcohol-Gly-Gly-Gly-Phe-NH—A′ (A—NH2=DX-8951) [Example 8]
Inhibition rate (%) [2, 5]: 76% | Inhibition rate (%) ([2]; 10 mg/kg calculated based on the drug compound, single administration on day 7): 85%

carboxymethyldextran polyalcohol-Gly-Gly-Gly-Phe-NH—A′ (A—NH2=DX-8951) [Example 29]
antitumor activity (in words) [2]: high | effective dose-range [2]: broader | Inhibition rate (%) ([3]; Example 60, 5 mg/kg calculated based on the drug compound, single administration): 79% | Inhibition rate (%) ([3]; Example 60, 10 mg/kg calculated based on the drug compound, single administration): 89% | Inhibition rate (%) [3, 6]: 99% | Inhibition rate (%) ([3]; Example 60, 30 mg/kg calculated based on the drug compound, single administration): 99%

carboxymethyldextran polyalcohol-Gly-Gly-Gly-Phe-NH—A′ (A—NH2=DX-8951) [Example 46]
antitumor activity (in words) [2]: high | effective dose-range [2]: broader | Inhibition rate (%) [3, 6]: 75% | Inhibition rate (%) [3, 7]: 82% | Inhibition rate (%) [3, 8]: 92% | Inhibition rate (%) [3, 9]: 94%

carboxymethyldextran polyalcohol-Gly-Gly-Phe-Gly-DXR [Example 44]
antitumor activity (in words) [2]: remarkably enhanced | effective dose-range [2]: broader | Inhibition rate (%) ([3]; Example 61, 5 mg/kg calculated based on the drug compound, single administration): 76% | Inhibition rate (%) ([3]; Example 61, 10 mg/kg calculated based on the drug compound, single administration): 87% | Inhibition rate (%) ([3]; Example 61, 20 mg/kg calculated based on the drug compound, single administration): 96% | Inhibition rate (%) ([3]; Example 61, 40 mg/kg calculated based on the drug compound, single administration): 96%

carboxymethyldextran polyalcohol-Gly-Gly-Phe-Gly-NH—A′ (A—NH2=DW-8089) [Example 41]
antitumor activity (in words) [2]: remarkably enhanced | effective dose-range [2]: broader | Inhibition rate (%) ([3]; Example 59, 3.125 mg/kg calculated based on the drug compound, single administration): 61% | Inhibition rate (%) ([3]; Example 59, 6.25 mg/kg calculated based on the drug compound, single administration): 81% | Inhibition rate (%) ([3]; Example 59, 12.5 mg/kg calculated based on the drug compound, single administration): 95% | Inhibition rate (%) ([3]; Example 59, 25 mg/kg calculated based on the drug compound, single administration): 99%

carboxymethyldextran polyalcohol-Gly-Gly-Phe-Gly-NH—A′ (A—NH2=DX-8951) [Example 9]
Inhibition rate (%) [2, 5]: 98% | Inhibition rate (%) ([1]; dose 0.35 mg/kg × 4 calculated based on the drug compound): 41% | Inhibition rate (%) ([1]; dose 0.7 mg/kg × 4 calculated based on the drug compound): 59% | Inhibition rate (%) ([1]; dose 1.4 mg/kg × 4 calculated based on the drug compound): 94% | toxicity (weight loss) ([1]; every 4 days 4 times): no toxicity | antitumor activity (in words) ([1]; every 4 days 4 times): remarkably enhanced | Inhibition rate (%) ([3]; Table 3, 2.5 mg/kg calculated based on the drug compound, single administration on day 7): 87%

carboxymethyldextran polyalcohol-Gly-Gly-Phe-Gly-NH—A′ (A—NH2=DX-8951) [Example 15]
Inhibition rate (%) (Human lung cancer QG-90; [10]): 97% | Numbers of died mice/mice used (Human lung cancer QG-90; [10]): 0/5 | Inhibition rate (%) (Human lung cancer QG-90; [11]): 98% | Numbers of died mice/mice used (Human lung cancer QG-90; [11]): 0/5 | antitumor activity (in words) (Human lung cancer QG-90; [12]): remarkably enhanced | effective dose-range (Human lung cancer QG-90; [12]): broader | Inhibition rate (%) (SC-6 human gastric tumor; [13]): 71% | Numbers of died mice/mice used (SC-6 human gastric tumor; [13]): 0/5 | Inhibition rate (%) (SC-6 human gastric tumor; [14]): 100% | Numbers of died mice/mice used (SC-6 human gastric tumor; [14]): 0/5 | death due to toxicity (SC-6 human gastric tumor; single intravenous administration): no death | antitumor activity (in words) (SC-6 human gastric tumor; [12]): higher | distribution in tumor tissues [4]: high | retention of blood level [4]: extremely long | antitumor activity (in words) [2]: remarkably enhanced | effective dose-range [2]: broader | Inhibition rate (%) ([3]; Example 56, 1.25 mg/kg calculated based on the drug compound, single administration): 83% | Inhibition rate (%) ([3]; Example 56, 2.5 mg/kg calculated based on the drug compound, single administration): 95% | Inhibition rate (%) ([3]; Example 56, 5 mg/kg calculated based on the drug compound, single administration): 99% | Inhibition rate (%) ([3]; Example 56, 10 mg/kg calculated based on the drug compound, single administration): 100%

α-methylcarboxymethyldextran polyalcohol-Gly-Gly-Gly-Phe-NH—A′ (A—NH2=DX-8951) [Example 47]
antitumor activity (in words) [2]: high | effective dose-range [2]: broader | Inhibition rate (%) ([3]; Example 60, 20 mg/kg calculated based on the drug compound, single administration): 75% | Inhibition rate (%) [3, 7]: 97% | Inhibition rate (%) [3, 8]: 94% | Inhibition rate (%) [3, 9]: 96%
